Test results: US8691859B2 (priority 2005, dated 2014)
≈ marks a conversion by molar mass, not a printed value. Read-outs that look alike come from different tables or passages of the source.

Tests used:
anthrax lethal factor = anthrax lethal factor (Bacillus anthracis, UniProt P15917); assay type: biochemical
[1] = tested on: B. anthracis GFP sterne vegetative cells; assay: microbe, parasite or virus in culture; assay type: cell-based; conditions: Bacillus anthracis, read-out: MIC B. anthracis vegetative cells
[2] = tested on: B. anthracis GFP sterne spores; assay: microbe, parasite or virus in culture; assay type: cell-based; conditions: Bacillus anthracis
[3] = target: botulinum neurotoxin serotype A light chain (Clostridium botulinum, UniProt P0DPI0); assay type: biochemical, Clostridium botulinium
P. aeruginosa PAO1 = assay: microbe, parasite or virus in culture; assay type: cell-based; conditions: Pseudomonas aeruginosa
B. anthracis Ames = assay: microbe, parasite or virus in culture; assay type: cell-based; conditions: Bacillus anthracis
B. pumilus = assay: microbe, parasite or virus in culture; assay type: cell-based; conditions: Bacillus pumilus
B. licheniformis = assay: microbe, parasite or virus in culture; assay type: cell-based; conditions: Bacillus licheniformis
B. brevis = assay: microbe, parasite or virus in culture; assay type: cell-based; conditions: Brevibacillus brevis
B. megaterium = assay: microbe, parasite or virus in culture; assay type: cell-based; conditions: Priestia megaterium
S. aureus = assay: microbe, parasite or virus in culture; assay type: cell-based; conditions: Staphylococcus aureus
E. coli = assay: microbe, parasite or virus in culture; assay type: cell-based; conditions: Escherichia coli
Y. pestis = assay: microbe, parasite or virus in culture; assay type: cell-based; conditions: Yersinia pestis
[4] = tested on: Methicillin resistant S. aureus; assay: microbe, parasite or virus in culture; assay type: cell-based; conditions: Staphylococcus aureus
Sterne spores = assay type: cell-based, B. anthracis
K. pneumoniae = assay: microbe, parasite or virus in culture; assay type: cell-based; conditions: Klebsiella pneumoniae
Ames spores [5] = assay: microbe, parasite or virus in culture; assay type: cell-based, B. anthracis; conditions: Bacillus anthracis
[6] = tested on: Burkholderia pseudomallei; assay: microbe, parasite or virus in culture; assay type: cell-based
Burkholderia mallei = assay: microbe, parasite or virus in culture; assay type: cell-based
[7] = tested on: Burkholderia thailandensis; assay: microbe, parasite or virus in culture; assay type: cell-based
B. cepacia = assay: microbe, parasite or virus in culture; assay type: cell-based; conditions: Burkholderia cepacia
B. subtilis = assay: microbe, parasite or virus in culture; assay type: cell-based; conditions: Bacillus subtilis
E. feacalis = assay: organism not typed; assay type: cell-based
Ames spores [8] = assay: microbe, parasite or virus in culture; assay type: cell-based, B. anthracis; conditions: Bacillus anthracis; remark: listed apart in the source
Sterne GFP spores = assay type: cell-based, B. anthracis
B. vollum [9] = assay: organism not typed; assay type: cell-based
B. vollum [10] = assay: organism not typed; assay type: cell-based; remark: listed apart in the source
[11] = read-out: MIC B. anthracis spores

botulinum neurotoxin serotype A light chain, sequence (P0DPI0 2-448 limits assumed): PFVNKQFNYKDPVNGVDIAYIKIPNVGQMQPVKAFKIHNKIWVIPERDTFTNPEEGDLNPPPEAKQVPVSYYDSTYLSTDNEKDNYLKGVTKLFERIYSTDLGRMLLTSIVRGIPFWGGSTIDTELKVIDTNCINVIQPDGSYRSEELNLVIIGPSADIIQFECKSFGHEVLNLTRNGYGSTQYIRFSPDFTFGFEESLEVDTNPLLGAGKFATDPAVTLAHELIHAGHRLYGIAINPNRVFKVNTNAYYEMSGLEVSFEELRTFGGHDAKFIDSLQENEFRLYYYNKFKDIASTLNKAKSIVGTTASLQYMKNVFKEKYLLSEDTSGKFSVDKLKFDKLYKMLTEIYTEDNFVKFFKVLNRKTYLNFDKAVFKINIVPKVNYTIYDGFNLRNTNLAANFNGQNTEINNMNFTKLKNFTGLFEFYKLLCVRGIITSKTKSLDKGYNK
anthrax lethal factor, sequence (P15917 34-809 limits assumed): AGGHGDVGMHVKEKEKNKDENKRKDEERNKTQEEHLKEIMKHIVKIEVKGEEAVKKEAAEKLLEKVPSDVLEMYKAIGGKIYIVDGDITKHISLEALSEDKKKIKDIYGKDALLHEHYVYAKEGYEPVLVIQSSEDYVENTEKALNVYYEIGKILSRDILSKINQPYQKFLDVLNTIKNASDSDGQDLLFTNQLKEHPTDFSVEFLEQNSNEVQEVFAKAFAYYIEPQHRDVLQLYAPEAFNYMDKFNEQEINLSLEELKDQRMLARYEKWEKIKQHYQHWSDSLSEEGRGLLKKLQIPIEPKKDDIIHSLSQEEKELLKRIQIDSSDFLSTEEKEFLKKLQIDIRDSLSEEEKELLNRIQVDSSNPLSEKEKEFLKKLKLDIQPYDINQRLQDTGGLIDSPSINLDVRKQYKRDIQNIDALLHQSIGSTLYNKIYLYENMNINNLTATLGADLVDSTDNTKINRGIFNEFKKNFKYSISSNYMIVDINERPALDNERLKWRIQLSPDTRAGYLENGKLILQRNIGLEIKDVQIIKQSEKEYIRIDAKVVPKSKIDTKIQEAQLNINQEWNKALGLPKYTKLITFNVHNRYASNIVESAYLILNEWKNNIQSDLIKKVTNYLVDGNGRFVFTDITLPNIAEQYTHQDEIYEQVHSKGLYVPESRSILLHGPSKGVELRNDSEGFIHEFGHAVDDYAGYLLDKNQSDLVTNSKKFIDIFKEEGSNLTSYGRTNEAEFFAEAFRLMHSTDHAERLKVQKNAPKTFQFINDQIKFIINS

Compound | inhibition of the protease activity of anthrax lethal factor (anthrax lethal factor) | MIC [1] [µg/mL] | MIC [2, 11] [µg/mL] | MIC (P. aeruginosa PAO1) [µg/mL] | MIC (B. anthracis Ames) [µg/mL] | MIC (B. pumilus) [µg/mL] | MIC (B. licheniformis) [µg/mL] | MIC (B. brevis) [µg/mL] | MIC (B. megaterium) [µg/mL] | MIC (S. aureus) [µg/mL] | MIC (E. coli) [µg/mL] | MIC (Y. pestis) [µg/mL] | MIC [4] [µg/mL] | effect on spore germination (Sterne spores) | MIC (K. pneumoniae) [µg/mL] | MBC (Ames spores [5]) [µg/mL] | MIC [6] [µg/mL] | MIC (Burkholderia mallei) [µg/mL] | MIC [7] [µg/mL] | MIC (B. cepacia) [µg/mL] | also measured
N=C(N)c1ccc(Oc2ccc(-c3cc4ccc(C(=N)N)cc4[nH]3)cc2)cc1 [NSC 240898, 2-[4-(4-carbamimidoylphenoxy)phenyl]-1H-indole-6-carboximidamide] | inhibit | 4.42 (≈ 12 µM) | 4.42 (≈ 12 µM) |  |  |  |  |  |  |  |  |  |  |  |  |  |  |  |  |  | inhibition of botulinum neurotoxin serotype A light chain metalloprotease activity [3]: inhibit
N=C(N)c1ccc2oc(/C=C/C=C/C=C/c3cc4cc(C(=N)N)ccc4o3)cc2c1 [NSC 308574, 2-[(1E,3E,5E)-6-(5-carbamimidoylbenzofuran-2-yl)hexa-1,3,5-trienyl]benzofuran-5-carboximidamide] | inhibit | 9.38 (≈ 23.7 µM) | 2.35 (≈ 5.91 µM) |  |  |  |  |  |  |  |  |  |  |  |  |  |  |  |  |  | inhibition of botulinum neurotoxin serotype A light chain metalloprotease activity [3]: inhibit
C(=C\c1cc2ccc(C3=NCCN3)cc2[nH]1)/c1cc2ccc(C3=NCCN3)cc2[nH]1 [NSC 317880, 6-(4,5-dihydro-1H-imidazol-2-yl)-2-[(E)-2-[6-(4,5-dihydro-1H-imidazol-2-yl)-1H-indol-2-yl]ethenyl]-1H-indole] | inhibit | 1.17 (≈ 2.96 µM) | 0.292 (≈ 0.74 µM) | 1.17 (≈ 2.96 µM) | 0.584 (≈ 1.48 µM) | 0.146 (≈ 0.37 µM) | 2.33 (≈ 5.92 µM) | 0.584 (≈ 1.48 µM) | 0.584 (≈ 1.48 µM) | 1.17 (≈ 2.96 µM) | 0.584 (≈ 1.48 µM) | 18.7 (≈ 47.4 µM) | 2.33 (≈ 5.92 µM) | results to those of NSC 317881 were obtained | > 18.7 | 0.146 (≈ 0.37 µM) | 18.7 (≈ 47.4 µM) | 9.34 (≈ 23.7 µM) | 18.7 (≈ 47.4 µM) | 18.7 (≈ 47.4 µM) | MIC (B. subtilis): 0.292 µg/mL (≈ 0.74 µM); MIC (E. feacalis): 0.584 µg/mL (≈ 1.48 µM); MIC (Ames spores [8]): 0.146 µg/mL (≈ 0.37 µM)
c1cc2cc(-c3ccc(-c4cc5ccc(C6=NCCN6)cc5[nH]4)cc3)[nH]c2cc1C1=NCCN1 [NSC 317881, 6-(4,5-dihydro-1H-imidazol-2-yl)-2-[4-[6-(4,5-dihydro-1H-imidazol-2-yl)-1H-indol-2-yl]phenyl]-1H-indole] | inhibit | 0.646 (≈ 1.45 µM) | 0.162 (≈ 0.364 µM) | 0.323 (≈ 0.727 µM) | 0.32 (≈ 0.72 µM) | 0.021 (≈ 0.0472 µM) | 0.646 (≈ 1.45 µM) | 0.646 (≈ 1.45 µM) | 0.323 (≈ 0.727 µM) | 0.323 (≈ 0.727 µM) | 0.646 (≈ 1.45 µM) | 20.7 (≈ 46.5 µM) | 0.323 (≈ 0.727 µM) | does not have an effect on spore germination | 10.3 (≈ 23.3 µM) | 0.162 (≈ 0.364 µM) | > 20.7 | 10.3 (≈ 23.3 µM) | 20.7 (≈ 46.5 µM) | > 20.7 | reduction in cfu as compared to the DMSO control (Sterne GFP spores): considerable reduction; treatment time after which no viable spores were detected (Sterne GFP spores): ~4 h; MIC ([2]; 22 h, read-out: MIC (figure legend)): 0.084 µg/mL (≈ 0.189 µM); time after contact with germination medium by which treated spores were killed by heat (Sterne spores): ≤ 15 min; MIC (B. subtilis): 0.162 µg/mL (≈ 0.364 µM); MIC (E. feacalis): 0.162 µg/mL (≈ 0.364 µM); MIC (Ames spores [8]): 0.162 µg/mL (≈ 0.364 µM)
c1cc2cc(-c3ccc4cc(C5=NCCN5)[nH]c4c3)[nH]c2cc1C1=NCCN1 [NSC 330687, 2-(4,5-dihydro-1H-imidazol-2-yl)-6-[6-(4,5-dihydro-1H-imidazol-2-yl)-1H-indol-2-yl]-1H-indole] |  | 1.1 (≈ 2.99 µM) | 0.551 (≈ 1.5 µM) | 17.6 (≈ 47.9 µM) | 1.1 (≈ 2.99 µM) | 0.138 (≈ 0.375 µM) | 2.21 (≈ 5.99 µM) | 0.276 (≈ 0.749 µM) | 0.551 (≈ 1.5 µM) | 1.1 (≈ 2.99 µM) | 1.1 (≈ 2.99 µM) | 8.82 (≈ 23.9 µM) | 2.2 (≈ 5.97 µM) | results to those of NSC 317881 were obtained | > 17.6 | 0.276 (≈ 0.749 µM) | > 17.6 | 8.82 (≈ 23.9 µM) | 17.6 (≈ 47.9 µM) | 4.41 (≈ 12 µM) | MIC (B. subtilis): 0.551 µg/mL (≈ 1.5 µM); MIC (E. feacalis): 2.21 µg/mL (≈ 5.98 µM); MIC (Ames spores [8]): 0.276 µg/mL (≈ 0.749 µM)
NC(N)=NN=Cc1ccc2cc(-c3ccc(/C=N/N=C(N)N)cc3)sc2c1 [NSC 341909, 2-[[2-[4-[(E)-(diaminomethylidenehydrazinylidene)methyl]-phenyl]benzothiophen-6-yl]methylideneamino]guanidine] | inhibit | 18 (≈ 47.7 µM) | 4.51 (≈ 11.9 µM) |  |  |  |  |  |  |  |  |  |  |  |  |  |  |  |  |  | inhibition of botulinum neurotoxin serotype A light chain metalloprotease activity [3]: inhibit
c1cc2cc(-c3ccc4cc(-c5ccc6oc(C7=NCCN7)cc6c5)[nH]c4c3)[nH]c2cc1C1=NCCN1 [NSC 369718, 6-(4,5-dihydro-1H-imidazol-2-yl)-2-[2-[2-(4,5-dihydro-1H-imidazol-2-yl)benzofuran-5-yl]-1H-indol-6-yl]-1H-indole] |  | 0.696 (≈ 1.44 µM) | 0.348 (≈ 0.718 µM) | 1.39 (≈ 2.87 µM) | 1.39 (≈ 2.87 µM) | 0.348 (≈ 0.718 µM) | 1.39 (≈ 2.87 µM) | 0.174 (≈ 0.359 µM) | 0.348 (≈ 0.718 µM) | 0.696 (≈ 1.44 µM) | 1.39 (≈ 2.87 µM) | 1.39 (≈ 2.87 µM) | 2.79 (≈ 5.75 µM) | results to those of NSC 317881 were obtained | 5.57 (≈ 11.5 µM) | 0.174 (≈ 0.359 µM) | 2.79 (≈ 5.75 µM) | 11.1 (≈ 23 µM) | 2.78 (≈ 5.75 µM) | 22.3 (≈ 46 µM) | MBC (B. vollum [9]): 0.348 µg/mL (≈ 0.718 µM); MIC (B. subtilis): 0.348 µg/mL (≈ 0.718 µM); MIC (E. feacalis): 0.696 µg/mL (≈ 1.44 µM); MIC (Ames spores [8]): 0.174 µg/mL (≈ 0.359 µM); MIC (B. vollum [10]): 0.348 µg/mL (≈ 0.718 µM)
